# Data as given in patent publication US20060084597A2, “USE OF COMPOUNDS HAVING GIP ACTIVITY FOR THE TREATMENT OF DISORDERS ASSOCIATED WITH ABNORMAL LOSS OF CELLS AND/OR FOR THE TREATMENT OF OBESITY” (Eisai Co., Ltd., priority 2002, published 2006).
# Legend:
# [1] = system: adult hippocampal progenitor cells; experiment: CyQUANT cell proliferation assay (DNA content); type: cell-based, rat; conditions: for cells in a well at the end of the experiment: around 6 x 10^3 cells seeded, control well without FGF around 1.5 x 10^5
# Description: Proliferation assay. Hippocampal progenitor cells were seeded at 0.2 x 10^4 cells/cm^2 on 24-well plates in culture medium containing human FGF-2 (20ng/ml) and left to grow for 48 h. After a further 48 h of growth without FGF-2, cells were incubated with porcine GIP at different concentrations (Sigma), FGF-2 alone or a combination of both GIP (1 nM) and FGF-2 for 48 h. Cell proliferation assay was performed using the CyQUANT Cell Proliferation Kit (Molecular Probes, Eugene, OR) and a GENios microplate reader (TECAN Austria GmbH, Grödig, Austria) according to the instructions of the manufacturer.
# [2] = system: adult hippocampal progenitor cells; experiment: methyl-[3H]-thymidine incorporation assay; type: cell-based, rat; conditions: 24 h, n = 12
# Description: Thymidin-assay. Hippocampal progenitor cells were seeded at 0.5 x 10^4 cells/cm^2 on 48-well plates in culture medium and left to grow for 48 h. The cells were then labeled with methyl-[^3H]-thymidine and incubated with GIP (1 nM) or FGF-2 (20ng/ml) for 24 h. Cells were lysed in 0.4 M NaOH, transferred to scint vials, mixed with 0.4 M HCl and assayed for DNA synthesis by scintillation spectrometry. The mean for each experiment was calculated from four different culture wells and each experiment was performed 12 times.
# [3] = system: adult hippocampal progenitor cells; experiment: Apop-Tag staining for apoptotic or dead cells; type: cell-based, rat; conditions: control 3.31 + 0.67%
# Description: Apop-Tag. Hippocampal progenitor cells were seeded at 1 x 10^4 cells/cm^2 on glass coverslips and treated the same way as for the proliferation assay and incubated with GIP (1 nM) or FGF-2 (20 ng/ml). Cells were fixed and stained for apoptosis according to the Apop Tag kit user manual (Apop Tag S160 direct, Intergene Company, Purchase, NY, USA). A negative control without TdT-enzyme was included and positive controls with addition of H2O2 (100 µM and 1 mM) and DNase I (1 µg/ml) was included. In the last washing step the cells were incubated with the nuclear dye bisBenzimide (Hoechst 33258, Sigma) for 30 min. Apoptotic or dead cells were identified by green fluorescence in the nuclei and Hoechst nuclear dye was used to discriminate total number of cells. Three coverslips per experiment was stained from four different experiments. Positive cells was quantified by scoring the immunoreactivity of 1000–3000 cells systematically observed in 6 nonoverlapping fields in each coverslip.
# [4] = system: adult hippocampal progenitor cells; experiment: LDH release from dying cells; type: cell-based, rat; conditions: GIP 1 nM or FGF-2 20 ng/ml
# Description: LDH-activity. Release of lactate dehydrogenase (LDH) from dying cells was measured using a routine photometric method (Dept. of Clinical Chemistry, Sahlgrenska University Hospital, Sweden). Cell culture medium was collected from culture wells seeded for the Apop Tag staining (see above). . The mean for each experiment was calculated from three different culture wells and each experiment was performed 4 times. The coefficient of variation for the assay was 1.7 % and the assay standard curve was linear for enzyme activities between 0.1–20 µkat/ dm^3.
# [5] = system: hippocampal progenitor cells in adult rat DG; experiment: Intracerebroventricular GIP infusion, BrdU-positive cell count in granule cell layer of dentate gyrus; type: in vivo; conditions: adult male SD rats, i.c.v. 1.92 nmol/day for 5 days
# Description: Intracerebroventricular GIP infusion. Adult male SD rats (260-280 g; B&K Universal, Sweden) were intubated and ventilated with isoflurane in an O2/N2O mix (30:70). An infusion cannula connected to an osmotic pump (Alzet brain infusion kit II and Alzet 2001 osmotic pump, Alza Scientific Products, Palo Alto, CA) was placed in the 3rd cerebral ventricle (0.3 mm posterior from Bregma along the midline, 5 mm below skull surface). Each rat was infused (1 µl/hr) for 5 days with either GIP (1.92 nmol/day; n = 5) or vehicle (0.1 M PBS; n = 6) and sacrificed the last day. All animals received a single daily intraperitoneal injection of Bromodeoxyuridine (BrdU; 50 mg/kg of body weight; Boehringer Mannheim; Scandinavia AB, Bromma, Sweden).
# Immunohistochemistry and cellcounting. Brains were sectioned and stained for BrdU using a primary mouse BrdU antibody (1:400, Boeringer Mannheim) and biotinylated horse anti-mouse IgG (1:125) secondary antibodies (Vector Laboratories, Burlingame, CA) as previously described^11. For each animal, the total number of BrdU-positive cells in the granule cell layer, including the subgranular layer, and their corresponding sample volume were determined in 12 immunoperoxidase-stained, 40-µm-thick coronal sections taken 240 µm apart. […] Results are expressed as BrdU-positive cells per sample volume.
# Statistics. […] All values are expressed as the means ± SEM.
# [6] = Effect on weight gain after intraventricular infusion in the brain; type: in vivo, rat; conditions: male Sprague-Dawley rats, 1.92 nmol/day intraventricularly, 5 days
# Description: Rats (male Sprague-Dawley) were given either GIP (6 rats, 1.92 nmol/day) or phosphate buffered saline (PBS) as control-solution (7 rats), intraventricularly in the brain by osmotic mini-pumps. The rats were given substance during five days, and then sacrificed.
# The weight of each rat was recorded and the total weight gain during the five days calculated.
Substance,"increase in cell proliferation relative to control ([1]; FGF-2 20 ng/ml alone, 48 h, n = 4) [%]",cells in a well at the end of the experiment [1],increase in thymidin incorporation compared to control ([2]; FGF-2 20 ng/ml) [%],cell death ([3]; FGF-2 20 ng/ml),extracellular level of released LDH compared with controls [4],"proliferative effect ([1]; GIP 0.1 pM, 48 h)",proliferative effect compared with FGF-2 ([1]; GIP 1 nM vs FGF-2 20 ng/ml),"increase in cell proliferation relative to control ([1]; GIP 1 nM, 48 h, n = 8) [%]","rate of cell proliferation, dose-dependent ([1]; GIP doses from 1 pM to 0.1 µM, 48 h)",increase in thymidin incorporation compared to control ([2]; GIP 1 nM) [%],cell death compared with control ([3]; GIP 1 nM),"number of BrdU+ cells in the granule cell layer ([5]; n = 5, PBS 14986 ± 1831) [cells/mm^3]",increase in BrdU-positive cells versus PBS-treated animals ([5]; p < 0.05) [%],weight gain as % of the weight gain seen in the PBS treated rats [6] [%],total weight gain during the five days ([6]; PBS 28.5g) [g]
"FGF-2: human fibroblast growth factor-2, a well-documented proliferative agent of these cells [reference compound]",112.3 ± 20,~3 x 10^5 cells,60.1 ± 7.1,0.96 + 0.21%,no statistical difference,,,,,,,,,,
"GIP: 42 amino acid gastric inhibitory polypeptide; porcine GIP (Sigma) used in the cell assays (YAEGTFISDYSIAMDKIRQQDFVNWLLAQKGKKSDWKHNITQ; Gastric inhibitory polypeptide synthetic; UniProt P01281 1-42, looked up)",,~2.5 x 10^5 cells,,,no statistical difference,absent,slightly more than half,74.5 ± 14.4,significant increases,32.4 ± 3.3,not statistically different,27969 ± 5795,86,63,17.9
